Data: patent US12493025B2, “Microfluidic device and method of preparing a cell model for disease associated with cancer” (City University of Hong Kong, priority 2020, dated 2025)
Where two headings read alike, the source gives them in different places.

What was measured:
[1] = test system: UMUC-3 bladder cancer cells; test: Cancer cell viability in clusters co-cultured with UTI89 (CT and CL models), Calcein-AM/Hoechst; doxorubicin dose-response; assay type: cell-based, human; details: for IC50: Homo sapiens, UMUC3, MOI 1:1, concentration giving 50% cell viability
Description: For CT models, bacterial suspension was centrifuged for 10,000 rpm for 5 min, and the supernatant was removed and replaced with MEM-α (10% supplemented with FBS, no added penicillin-streptomycin) at final dilutions at the rate of 500:1, 100:1, and 1:1 (bacteria:cell). After seeding and incubating for 24 h, the UMUC-3 cell clusters in the microchannels were stained using Hoechst dye for 30 minutes at 37° C. before infection. After original media with dye in channels was gently removed, the diluted bacterial suspension was added into 9 channels separately, three channels per concentration. The corresponding control group of the two models was obtained at time points before the introduction of bacteria.
As for CL models, bacteria suspended in MEM a and UMUC-3 cells (no added penicillin-streptomycin) were mixed before seeding at the rate of 500:1, 100:1, and 1:1. The device was incubated at 37° C. with 5% CO2 and in situ imaging and analyzing at 1 h, 9 h, and 24 h, respectively. Besides, an isolated channel only with 24 h cultured UMUC-3 was set as a negative control to indicate the beginning of the infection.
For fluorescent staining analysis, the nuclear dye Hoechst (Life Technologies) and Calcein-AM (Invitrogen) were added into cell suspension in the channel at dilution of 1:1000 (v/v). After incubating for 30 minutes at 37° C. for staining, the media was gently removed from each channel, and the device could be imaged via Nikon Ci-L fluorescent microscope directly at 10× magnification. The images processing and cell counting under fluorescent staining were done through ImageJ software. For infection analysis imaging, after incubating for 30 minutes with fluorescent dyes and remove the mixture of dyes and media in the channel, the channels were washed with 1×PBS to remove unbound bacteria and treated with 100 μg/mL gentamicin for 2 h to kill the extracellular bacteria, then the device could be imaged directly. […]

[2] = test system: UMUC-3 bladder cancer cells; test: Viability of non-infected cancer cells after DNase or Cipro treatment; assay type: cell-based, human; details: uninfected control; Cipro 24 h
[3] = test system: UMUC-3 bladder cancer cells; test: In situ immunostaining of CD44 and CD24 after DNase treatment; assay type: cell-based, human; details: CT model, 9 h after infection
Description: The infected cell clusters were firstly washed with 1×PBS gently and treated with 100 μg/mL gentamicin for 2 h to kill extracellular bacteria but keep the intracellular ones. Then channels were loaded PBS with antibody dyes at dilution of […] (v/v). After incubating for 30 minutes at room temperature for staining, the PBS was gently removed from each channel, and the stained clusters could be directly observed through a fluorescent microscope.
(§1) To dissolve the biofilm, 1×DNase (0.01 mg/mL; Sigma-Aldrich) diluted with fresh antibiotic-free culture media were added into channels after 1 h infection, and the device was continually incubated at 37° C. for 8 h. Then downstream in situ analysis was done after removing DNase and washing channels with PBS. The untreated clusters after 9 h infection were set as control.

[4] = test system: UMUC-3 bladder cancer cells; test: Cluster size after DNase treatment of coculture (in situ morphology analysis); assay type: cell-based, human; details: 0.01 mg/mL DNase, 9 h of infection
Description: The clusters formed in the microwell after 24 h culture or infection were imaged via an optical microscope by the device put on the objective directly at 40× or 100× magnification. Each channel was shot at three frames at the top, middle and bottom state. The image processing and analysis of cluster size and density were done through ImageJ software.
as §1

[5] = test system: uropathogenic E. coli strain UTI89; test: MIC of ciprofloxacin; assay type: cell-based, Escherichia coli

COc1cccc2c1C(=O)c1c(O)c3c(c(O)c1C2=O)C[C@@](O)(C(=O)CO)C[C@@H]3O[C@H]1C[C@H](N)[C@H](O)[C@H](C)O1 [doxorubicin]
IC50 ([1]; CL model (intratumoral UTI89), read-out: IC50 of doxorubicin on cancer cells with the CL model): 1590 nM
IC50 ([1]; CT model (extratumoral UTI89), read-out: IC50 of doxorubicin on cancer cells with the CT model): 1790 nM

DNase
cancer cell viability in the CT model after biofilm disruption by DNase ([1]; CT model, 9 h infection, more obvious at MOIs 100:1 and 500:1): increased to a level comparable to that in the CL model
adverse effect on non-infected cancer cells (viability) [2]: neither ciprofloxacin nor DNase had adverse effect
expression intensity of CD24, DNase-treated vs untreated control [3]: reduced
expression intensity of CD44, DNase-treated vs untreated control [3]: reduced
cluster size in the CL model after DNase treatment ([4]; CL model): slight increase in cluster size
cluster size in the CT model after DNase treatment ([4]; CT model): reverse the effect of cluster size reduction

O=C(O)c1cn(C2CC2)c2cc(N3CCNCC3)c(F)cc2c1=O [ciprofloxacin]
MIC ([5]; Escherichia coli, as printed in Example 7): 0.025 µg/mL
MIC value ([5]; as printed in legend of FIG. 14C): 0.025 µg/mL
